Results published in patent publication EP0172632B1, “Benzopyrano[4,3,2-cd]indazole compounds, processes for their production and pharmaceutical compositions comprising the compounds” (WARNER-LAMBERT COMPANY, priority 1984, dated 1986).
Counter-ions that a name gives are not always drawn. Like-named read-outs stand apart in the source and are kept apart here.

Experiments:
L1210 cells = assay: L1210 in vitro cell growth inhibition; type: cell-based; conditions: Mus musculus, 72 h; L1210 murine leukemia cells, three days incubation, 50% inhibition of growth; read-out: L1210 in vitro ID50
Protocol: Another test protocol uses L1210 cells, a murine leukemia cell line, grown in RPMI 1640 supplemented with 5% fetal bovine serum and gentamicin ([…]). Drug dilutions are prepared in the appropriate solvent and 20 µl of each dilution are added to 24-well Linbro tissue culture plates, followed by the addition of 2.0 ml of cell suspension containing 3 x 10^4 cells per ml. Solvent and medium controls are included in each test. After incubation at 37°C for three days in 5% CO2, the contents of each well are removed and the cells counted in a ZBI Counter counter. Percent growth are calculated relative to the controls and the levels of drug activity are expressed as ID50 in moles per liter.

[1] = test system: lymphocytic leukemia P388; assay: in vivo lymphocytic leukemia P388 test; conditions: Mus musculus, P388, ip, 120 h, mice, survival time treated/control, read-out: P388 in vivo T/C×100; for response vs control in vivo at 12.5 mg/kg: Dose 12.5 mg/kg intraperitoneally once daily for five days; for response vs control in vivo at 25 mg/kg: Dose 25 mg/kg intraperitoneally once daily for five days; for response vs control in vivo at 6.25 mg/kg: Dose 6.25 mg/kg intraperitoneally once daily for five days; for response vs control in vivo at 50 mg/kg: Dose 50 mg/kg intraperitoneally once daily for five days; for response vs control in vivo at 100 mg/kg: Dose 100 mg/kg intraperitoneally once daily for five days
Protocol: Another test protocol is the in vivo lymphocytic leukemia P388 test. The animals used are either male or female CD2F, mice. There are six or seven animals per test group. The tumor transplant is by intraperitoneal injection of dilute ascitic fluid containing cells of lymphocytic leukemia P388. The test compounds are administered intraperitoneally once daily for five consecutive days at various doses following tumor inoculation. The animals are weighed and survivors are recorded on a regular basis for 30 days. A compound is designated "toxic" if, at a given dose, all animals died prior to four days after the first injection of drug. A ratio of survival time for treated (T)/control (C) animals is calculated. A criterion for efficacy is a ratio T/C times 100 greater than or equal to 125. See Cancer Chemotherapy Reports, Part 3, 3, 1 (1972) for a comprehensive discussion of the protocol.

[2] = test system: Corynebacterium Sp. ATCC 21698; assay: in vitro antibacterial (ABMF) microdilution susceptibility test; type: cell-based; conditions: ATCC21698, Mueller-Hinton broth microdilution, 37°C, 16-24 hours, read-out: ABMF Minimal Inhibitory Concentration (µ/ml) Coryn. sp.
From the text: (§1) Still another test protocol is the in vitro antibacterial (ABMF) test which is a recognized standard microdilution susceptibility procedure in Mueller-Hinton broth against Gram-positive and Gram-negative bacterial test organisms. The procedure is a modification of a state-of-the-art procedure reported in Manual of Clinical Microbiology, Lennette, E. H., ed., by Barry, A. L. and C. Thornsberry at pages 463-474 and by Gavan, T. L. and A. L. Barry at pages 459―462, American Society for Microbiology, Washington, 1980.
(§2) In the test, a given bacterial culture is used to inoculate individual test wells of microdilution trays containing growth medium and test compound, the latter in a microdilution series: 1000, 333.111, 37,12, 4, 1.4, and 0.46 micrograms per milliliter. […] For convenience, values are reported for Escherichia coli, Corynebacterium Sp. ATCC 21698, Salmonella typhimurium, Streptococcus pneumoniae, and Rhodotorula aurantiaca.

Escherichia coli = assay: as above; type: cell-based; conditions: read-out: ABMF Minimal Inhibitory Concentration (µ/ml) E. coli
From the text: as §1, §2

Rhodotorula aurantiaca = assay: as above; type: cell-based; conditions: Buckleyzyma aurantiaca, read-out: ABMF Minimal Inhibitory Concentration (µ/ml) R. aurant
From the text: as §1, §2

Salmonella typhimurium = assay: as above; type: cell-based; conditions: Salmonella enterica, Mueller-Hinton broth microdilution, 37°C, 16-24 hours, read-out: ABMF Minimal Inhibitory Concentration (µ/ml) S. typh.
From the text: as §1, §2

Streptococcus pneumoniae = assay: as above; type: cell-based; conditions: Mueller-Hinton broth microdilution, 37°C, 16-24 hours, read-out: ABMF Minimal Inhibitory Concentration (µ/ml) S. pneum.
From the text: as §1, §2

[3] = Mueller-Hinton broth microdilution, 37°C, 16-24 hours

Structure (SMILES)	IC50 (L1210 cells) [nM]	response vs control in vivo at 12.5 mg/kg [1] [%]	response vs control in vivo at 25 mg/kg [1] [%]	MIC [2] [µg/mL]	MIC (Escherichia coli) [µg/mL]	MIC (Rhodotorula aurantiaca; [3]) [µg/mL]	MIC (Salmonella typhimurium) [µg/mL]	MIC (Streptococcus pneumoniae) [µg/mL]	response vs control in vivo at 6.25 mg/kg [1] [%]	MIC (Escherichia coli; [3]) [µg/mL]	response vs control in vivo at 50 mg/kg [1] [%]	response vs control in vivo at 100 mg/kg [1] [%]	response vs control in vivo at 200 mg/kg ([1]; Dose 200 mg/kg intraperitoneally once daily for five days) [%]	MIC (Rhodotorula aurantiaca) [µg/mL]
CCN(CC)CCn1nc2c3c(c(NCCN)ccc31)Oc1ccc(OC)cc1-2 [Example 6, 1-[2-[2-(Diethylamino)ethyl]-9-methoxy-2H-[1]benzopyrano-[4,3,2-cd]ndazole-5-yl]-1,2-ethanediamine, trihydrobromide]	1100	154	145	4.1	111	333	111	12.3	–	–	–	–	–	–
CCN(CC)CCn1nc2c3c(c(N)ccc31)Oc1ccc(O)cc1-2.Cl.Cl [Example 12, 5-Amino-N,N-diethyl-9-hydroxy-2H-[1]benzopyrano[4,3,2-cd]indazole-2-ethanamine, dihydrochloride]	71	201	192	12.3	111	> 1000	111	12.3	167	–	–	–	–	–
CCN(CC)CCn1nc2c3c(c([N+](=O)[O-])ccc31)Oc1cc(OC)ccc1-2 [Example 19, 5-Nitro-2-[2-(diethylamino)ethyl]-8-methoxy-2H [1]benzopyrano[4,3,2-cd]indazol, hydrochloride]	2200	–	–	< 0.46	–	333	37	< 0.46	–	< 0.46	–	–	–	–
O=[N+]([O-])c1ccc2c3c(nn2CCNCCO)-c2cc(O)ccc2Oc13 [Example 15, 2-[2-[(2-Hydroxyethyl)amino]ethyl]-5-nitro-2H-[1]benzopyrano[4,3,2-cd]indazol-9-01, hydrochloride]	15	190	218	1.4	–	1000	12.3	1.4	–	> 0.46	230	–	–	–
OCCNCCNc1ccc2c3c(nn2CCNCCO)-c2cc(O)ccc2Oc13 [Example 18, 2-[2[(2-Hydroxyethyl)amino]ethyl]-5-[[2-[(2-hydroxyethyl)amino]ethyl]amino-2H [1]benzopyrano[4,3,2-cd]indazol-9-ol, hydrochloride]	130	236	236	37	–	> 1000	1000	333	173	111	–	–	–	–
O=[N+]([O-])c1ccc2c3c(nn2CCN2CCCC2)-c2cc(O)ccc2Oc13 [Example 10, 5-Nitro-2[2-(1-pyrrolidinyl)ethyl]-2H-[1]benzopyrano[4,3,2-cd]indazole-9-ol, methanesulfonate]	3.5	–	–	< 0.46	–	1000	1.4	< 0.46	–	> 1000	–	–	–	–
COc1ccc2c(c1)-c1nn(CCCN(C)C)c3ccc([N+](=O)[O-])c(c13)O2 [Example 7, 9-Methoxy-N,N-dimethyl-5-nitro-2H-[1]benzopyrano[4,3,2-cd]indazole-2-propanamine, methanesulfonate (1:1.17)]	580	–	–	< 0.46	–	1000	111	< 0.46	–	4.1	134	159	218	–
CCN(CC)CCn1nc2c3c(c(NC(=O)CNCCO)ccc31)Oc1ccc(O)cc1-2.Cl [Example 13, N-[2-[2-(Diethylamino)ethyl]-9-hydroxy-2H-[1]benzopyrano[4,3,2-cd]indazole-5-yl]-2-[(2-hydroxyethyl)-amino]acetamide, hydrochloride]	5.7	–	198	333	–	> 1000	> 1000	333	–	111	227	272	–	–
CN(C)CCCn1nc2c3c(c([N+](=O)[O-])ccc31)Oc1ccc(O)cc1-2.CS(=O)(=O)O [Example 11, 9-Hydroxy-N,N-dimethyl-5-nitro-2H-[1]benzopyrano[4,3,2-cd]indazole-2-propanamine, methanesulfonate (1:1)]	15	200	226	< 0.46	–	1000	12.3	< 0.46	150	< 0.46	–	–	–	–
COc1ccc2c(c1)-c1nn(CCN3CCCC3)c3ccc(N)c(c13)O2 [Example 9, 9-Methoxy-2-[2-(1-pyrrolidinyl)ethyl]-2H-[1]benzopyrano[4,3,2-cd]indazole-2-amine, monohydrochloride]	360	–	–	4.1	–	333	111	4.1	–	12.3	–	–	–	–
CCN(CC)CCn1nc2c3c(c([N+](=O)[O-])ccc31)Oc1ccc(OC)cc1-2 [Example 5, N,N-Diethyl-9-methoxy-5-nitro-2H-[1]benzopyrano-[4,3,2-cd]indazole-2-ethanamine, methanesulfonate (1: 1)]	920	–	126	< 0.46	–	–	111	< 0.46	–	< 0.46	148	192	–	111
COc1ccc2c(c1)-c1nn(CCN3CCCC3)c3ccc([N+](=O)[O-])c(c13)O2.Cl [Example 8, 9-Methoxy-5-nitro-2-[2-(1-pyrrolidinyl)ethyl]-2H-[1]benzopyrano[4,3,2-cd]indazole, monohydrochloride]	2000	–	–	< 0.46	–	111	37	< 0.46	–	> 1000	–	–	–	–
CCN(CC)CCn1nc2c3c(c([N+](=O)[O-])ccc31)Oc1cc(O)ccc1-2 [Example 20, 5-Nitro-2-[2-(diethylamino)ethyl]-2H-[1]benzopyrano[4,3,2-cd]indazol-8-0l, hydrochloride]	870	–	–	< 0.46	–	> 1000	12.3	< 0.46	–	1.4	–	–	–	–
